From US8257921B1, “NRIP1 regulation of apolipoprotein A1” (Schering Corporation, priority 2008, dated 2012)

How the values were obtained:
[1] = tested on: apoA1 mRNA; conditions: HepG2 cells; Haghpassand et al. 1995; cited from earlier work
[2] = tested on: apoA1 mRNA; experiment: apoA1 mRNA by RT-qPCR in transfected HepG2 cells; type: cell-based, human; conditions: for apoA1 mRNA levels: individual NRIP1 Dicer substrate dsiRNA duplexes (FIG. 8)
Source text: Pools of siRNAs that were targeted to NRIP1 (#27) and 32 other transcription modulators were transfected into cultured HepG2 cell along with experimental controls apoA1 siRNA (siApoA1), siRNA non-targeting control (siNT) and transfection media without siRNA (HepG2). […] Each siRNA was designed and synthesized by Dharmacon to interact in a sequence specific manner with the target mRNA and suppress gene expression. For NRIP1, the following siRNA duplexes were used based on the NRIP1 sequence found under GenBank Accession no. NM_173440.
Cultured human hepatoma cell line HepG2 cells were seeded in 6-well plates at a density of 4E5 (i.e., 4×10^5) cells/well in antibiotic free 10% FBS/MEME and cultured for 16 hours. siRNA (20 μM) was prepared by diluting to 2 μM with buffer. To that, equal amounts Opti-MEM medium was added, mixed and kept at room temperature (RT) for 5 minutes. Transfection lipid was prepared using DharmaFECT 4 transfection reagent X25 times diluted with Opti-MEM medium (4 μL/100 medium), mixed and kept at RT for 5 minutes. siRNA and transfection lipid were complexed by mixing equal volumes and incubated for 20 minutes at RT. […]
Forty-eight hours post transfection, medium was removed from transfected HepG2 culture and assessed for secreted apoA1 levels using a human apoA1 sandwich ELISA (MabTech) as described by the manufacturer. […]
HepG2 cells were transfected with varying concentrations of pooled NRIP1 siRNA as described in Example 1, except that 24 hours post transfection 10 μM 9 cis-retinoic acid was added to the growth medium. Cells were harvested 24 hours later and apoA1 and NRIP1 mRNA levels measured as previously described. […]
HepG2 cells were transfected with four individual NRIP1 siRNA duplexes at a concentration of 100 nM or a pool of all four siRNAs at a final concentration 100 nM following the protocol previously described. […] In FIG. 6, expression levels of NRIP1 gene expression were similarly evaluated. […]

[3] = tested on: NRIP1 target mRNA; experiment: NRIP1 mRNA by RT-qPCR in transfected HepG2 cells; type: cell-based, human; conditions: for NRIP1 gene expression (suppression): individual siRNA duplexes 100 nM, vs siNT and lipid controls (FIG. 6); for NRIP1 target gene expression, dose response: 4-fold dilutions from 100 nM to 1.56 nM (FIG. 7)
Experimental: Cultured human hepatoma cell line HepG2 cells were seeded in 6-well plates at a density of 4E5 (i.e., 4×10^5) cells/well in antibiotic free 10% FBS/MEME and cultured for 16 hours. siRNA (20 μM) was prepared by diluting to 2 μM with buffer. To that, equal amounts Opti-MEM medium was added, mixed and kept at room temperature (RT) for 5 minutes. Transfection lipid was prepared using DharmaFECT 4 transfection reagent X25 times diluted with Opti-MEM medium (4 μL/100 medium), mixed and kept at RT for 5 minutes. siRNA and transfection lipid were complexed by mixing equal volumes and incubated for 20 minutes at RT. Cultured HepG2 cells in 6-sell plates were changed into fresh antibiotic free 10% FBS/MEME (1.6 mL/well) and 400 complexed siRNA was added to each well to a final concentration of 100 nM and incubated for 48 hrs.
HepG2 cells were transfected with varying concentrations of pooled NRIP1 siRNA as described in Example 1, except that 24 hours post transfection 10 μM 9 cis-retinoic acid was added to the growth medium. Cells were harvested 24 hours later and apoA1 and NRIP1 mRNA levels measured as previously described. RT-qPCR was performed as described (Zhu et al., Analytical Biochemistry 345:102-109 (2005)) using the following NRIP1 specific primer/probes:
HepG2 cells were transfected with four individual NRIP1 siRNA duplexes at a concentration of 100 nM or a pool of all four siRNAs at a final concentration 100 nM following the protocol previously described. Following isolation of total RNA, RT-qPCR was performed for apoA1 and NRIP1 gene expression. FIG. 5 compared apoA1 mRNA gene expression for siRNA samples to the siNT and lipid controls. In FIG. 6, expression levels of NRIP1 gene expression were similarly evaluated.
The differential effectiveness of individual sequence specific RNAi molecules to inhibit gene expression is well documented (Soutschek et al., Nature 432: 173-178 (2004)). […] The NRIP1 siRNA #5 and #8 were compare using 4-fold dilutions from 100 nM to 1.56 nM.

| Compound | apoA1 mRNA levels [2] | NRIP1 gene expression (suppression) [3] | NRIP1 target gene expression, dose response [3] | further results |
| --- | --- | --- | --- | --- |
| CC1=C(/C=C/C(C)=C\C=C\C(C)=C\C(=O)O)C(C)(C)CCC1 [9CRA, 9-cis retinoic acid] |  |  |  | endogenous apoA1 gene expression [1]: stimulates |
| dsi#27-1: NRIP1 Dicer substrate RNAi duplex (IDT): sense 5′-AGACUAUACCUAAGCCAAUGAAUGG, antisense 5′-CCAUUCAUUGGCUUAGGAUAGUCUGG | elevated |  |  |  |
| dsi#27-2: NRIP1 Dicer substrate RNAi duplex (IDT): sense 5′-AGGAGUCACAGAAAUAAUGAAAUGG, antisense 5′-CCAUUUCAUUAUUUCUGUGACUCCUGU | elevated |  |  |  |
| oligo #7: NRIP1 siRNA duplex: sense GGACUGGAAUGCAGCAAAGUU (SEQ ID NO: 14), antisense 5′P-CUUUGCUGCAUUCCAGUCCUU (SEQ ID NO: 15) (5' phosphate on antisense, further chemistry not given here) |  | least effective |  | apoA1 mRNA gene expression (induction) ([2]; individual siRNA duplexes 100 nM, vs siNT and lipid controls (FIG. 5)): least effective |
| siRNA #5: NRIP1 siRNA duplex: sense GAAGCGUGCUAACGAUAAAUU (SEQ ID NO: 7), antisense 5′P-UUUAUCGUUAGCACGCUUCUU (SEQ ID NO: 12) (5' phosphate on antisense strand, further chemistry not given here) |  | most effective | inhibited better by siRNA #8 over siRNA #5 |  |
| siRNA #8: NRIP1 siRNA duplex: sense AUACGAAUCUUCCUGAUGUUU (SEQ ID NO: 9), antisense 5′P-ACAUCAGGAAGAUUCGUAUUU (SEQ ID NO: 16) (5' phosphate on antisense strand, further chemistry not given here) |  | most effective | inhibited better |  |
